The results in this text go back to US10888551B2, “Drug delivery system” (Indian Institute of Technology, Bombay, priority 2016, dated 2021).

This assay has as its system KB cells. Kind of assay: Cell migration wound healing assay. It counts as cell-based, Human. Particulars: 10 μM, 9 hours.

Structures can show the parent of a compound that is named as a salt.

As to `CNC(=O)c1cc(Oc2ccc(NC(=O)Nc3ccc(Cl)c(C(F)(F)F)c3)cc2)ccn1` [Sraf, Sorafenib tosylate], the “retardation of migration of KB cells” value was 30±9%. For the same compound, under “control 525±23 μm at 0 h”, the “width of the wound” value came to 303±27 μm.
